# Assay results published in US20090143454A1, “Pyrazoline Derivatives and Their Use As Pesticides” (BAYER CROPSCIENCE AG, priority 2001, published 2009).
# Tested on: not listed separately
# Test: logP determination by HPLC on reversed-phase column (EEC Directive 79/831 Annex V.A8)
# Type: physicochemical
# Details: pH 2.3
# Description: The logP values given in the Preparation Examples and Tables above are determined in accordance with EEC Directive 79/831 Annex V.A8 by HPLC (High Performance Liquid Chromatography) using a reversed-phase column (C 18). Temperature: 43° C.
# The determination in the acidic range is carried out at pH 2.3 using the mobile phases 0.1% aqueous phosphoric acid and acetonitrile; linear gradient from 10% acetonitrile to 90% acetonitrile.
# Calibration is carried out using unbranched alkan-2-ones (having 3 to 16 carbon atoms) with known logP values (determination of the logP values by the retention times using linear interpolation between two successive alkanones).
Structure (SMILES),logP (pH 2)/m.p.,logP (pH 2)
N#Cc1cnn(C2CN(C(=O)Nc3ccc(C(F)(F)F)cc3)N=C2c2ccc(Cl)cc2)c1 (stereo not shown) [Example 4],3.86,–
COC(=O)c1cnn(C2CN(C(=O)Nc3ccc(OC(F)(F)F)cc3)N=C2c2ccc(Cl)cc2)c1 (stereo not shown) [Example 17],3.95,–
CN(C)C(=O)c1cnn(C2CN(C(=O)Nc3ccc(OC(F)(F)F)cc3)N=C2c2ccc(Cl)cc2)c1 (stereo not shown) [Example 19],3.27,–
N#Cc1cnn(C2CN(C(=O)Nc3ccc(OC(F)(F)F)cc3)N=C2c2ccc(I)cc2)c1 (stereo not shown) [Example 13],4.12,–
CCOC(=O)N(C(=O)N1CC(n2cc(C#N)cn2)C(c2ccc(Cl)cc2)=N1)c1ccc(OC(F)(F)F)cc1 (stereo not shown) [Example 7],4.06,–
CNC(=O)c1cnn(C2CN(C(=O)Nc3ccc(S(=O)(=O)C(F)(F)F)cc3)N=C2c2ccc(Cl)cc2)c1 (stereo not shown) [Example 22],3.00,–
N#CCN(C(=O)N1CC(n2cc(C#N)cn2)C(c2ccc(Cl)cc2)=N1)c1ccc(C(F)(F)F)cc1 (stereo not shown) [Example 36],3.56,–
N#CCN(C(=O)N1CC(n2cc(C#N)cn2)C(c2ccc(Cl)cc2)=N1)c1ccc(SC(F)(F)F)cc1 (stereo not shown) [Example 32],3.90,–
CNC(=O)c1cnn(C2CN(C(=O)Nc3ccc(OC(F)(F)F)cc3)N=C2c2ccc(Cl)cc2)c1 (stereo not shown) [Example 20],3.07,–
N#Cc1cnn(C2CN(C(=O)Nc3ccc(S(=O)(=O)C(F)(F)F)cc3)N=C2c2ccc(Cl)cc2)c1 (stereo not shown) [Example 18],3.78,–
CNC(=O)c1cnn(C2CN(C(=O)Nc3ccc(SC(F)(F)F)cc3)N=C2c2ccc(Cl)cc2)c1 (stereo not shown) [Example 21],3.39,–
NC(=O)c1cnn(C2CN(C(=O)Nc3ccc(OC(F)(F)F)cc3)N=C2c2ccc(Cl)cc2)c1 (stereo not shown) [Example 23],2.94,–
N#CCN(C(=O)N1CC(n2cc(C#N)cn2)C(c2ccc(Br)cc2)=N1)c1ccc(C(F)(F)F)cc1 (stereo not shown) [Example 35],3.63,–
N#CCN(C(=O)N1CC(n2cc(C#N)cn2)C(c2ccc(Br)cc2)=N1)c1ccc(SC(F)(F)F)cc1 (stereo not shown) [Example 34],3.99,–
N#Cc1cnn(C2CN(C(=O)Nc3ccc(I)cc3)N=C2c2ccc(Cl)cc2)c1 (stereo not shown) [Example 30],3.90,–
NC(=O)c1cnn(C2CN(C(=O)Nc3ccc(SC(F)(F)F)cc3)N=C2c2ccc(Cl)cc2)c1 (stereo not shown) [Example 24],3.24,–
N#Cc1cnn(C2CN(C(=O)Nc3ccc(Br)cc3)N=C2c2ccc(Cl)cc2)c1 (stereo not shown) [Example 28],3.73,–

Structure (SMILES),logP (pH 2)/m.p.,logP (pH 2)
N#Cc1cnn(C2CN(C(=O)Nc3ccc([S+]([O-])C(F)(F)F)cc3)N=C2c2ccc(Cl)cc2)c1 (stereo not shown) [Example 12],3.28,–
N#Cc1cnn(C2CN(C(=O)Nc3ccc(SC(F)(F)F)cc3)N=C2c2ccc(I)cc2)c1 (stereo not shown) [Example 14],4.48,–
N#Cc1cnn(C2CN(C(=O)Nc3ccc(C(F)(F)F)cc3)N=C2c2ccc(Br)cc2)c1 (stereo not shown) [Example 37],3.94,–
N#CCN(C(=O)N1CC(n2cc(C#N)cn2)C(c2ccc(Br)cc2)=N1)c1ccc(OC(F)(F)F)cc1 (stereo not shown) [Example 33],3.75,–
N#Cc1cnn(C2CN(C(=O)Nc3ccc(OC(F)(F)F)cc3)N=C2c2ccc(Cl)cc2)c1 (stereo not shown) [Example 3],3.91,–
CN(C)C(=O)c1cnn(C2CN(C(=O)Nc3ccc(S(=O)(=O)C(F)(F)F)cc3)N=C2c2ccc(Cl)cc2)c1 (stereo not shown) [Example 27],3.27,–
N#Cc1cnn(C2CN(C(=O)Nc3ccc(SC(F)(F)F)cc3)N=C2c2ccc(SC(F)(F)F)cc2)c1 (stereo not shown) [Example 16],4.73,–
CN(C)C(=O)c1cnn(C2CN(C(=O)Nc3ccc(SC(F)(F)F)cc3)N=C2c2ccc(Cl)cc2)c1 (stereo not shown) [Example 26],3.27,–
N#Cc1cnn(C2CN(C(=O)Nc3ccc(OC(F)(F)F)cc3)N=C2c2ccc(Br)cc2)c1 (stereo not shown) [Example 9],4.00,–
N#Cc1cnn(C2CN(C(=O)Nc3ccc(OC(F)(F)F)cc3)N=C2c2ccc(SC(F)(F)F)cc2)c1 (stereo not shown) [Example 15],4.39,–
NC(=O)c1cnn(C2CN(C(=O)Nc3ccc(S(=O)(=O)C(F)(F)F)cc3)N=C2c2ccc(Cl)cc2)c1 (stereo not shown) [Example 25],2.94,–
N#Cc1cnn(C2CN(C(=O)Nc3ccc(SC(F)(F)F)cc3)N=C2c2ccc(Cl)cc2)c1 (stereo not shown) [Example 5],4.27,–
COC(=O)N(C(=O)N1CC(n2cc(C#N)cn2)C(c2ccc(Cl)cc2)=N1)c1ccc(OC(F)(F)F)cc1 (stereo not shown) [Example 6],3.82,–
N#Cc1cnn(C2CN(C(=O)Nc3ccc(SC(F)(F)F)cc3)N=C2c2ccc(Br)cc2)c1 (stereo not shown) [Example 10],4.35,–
N#Cc1cnn(C2CN(C(=O)Nc3ccc(S(=O)(=O)C(F)(F)F)cc3)N=C2c2ccc(Br)cc2)c1 (stereo not shown) [Example 11],3.88,–
N#CCN(C(=O)N1CC(n2cc(C#N)cn2)C(c2ccc(Cl)cc2)=N1)c1ccc(Cl)cc1 (stereo not shown) [Example 31],3.42,–
N#Cc1ccc(NC(=O)N2CC(n3cc(C#N)cn3)C(c3ccc(Cl)cc3)=N2)cc1 (stereo not shown) [Example 29],3.00,–

# Second part, the molecule after the results:
logP (pH 2)/m.p.,logP (pH 2),Structure (SMILES)
–,2.91,N#Cc1cnn(CC(=O)c2ccc(SC(F)(F)F)cc2)c1 [VI-5]
–,2.78,N#Cc1cnn(C2CNN=C2c2ccc(SC(F)(F)F)cc2)c1 (stereo not shown) [II-4]
–,1.33,NC(=O)c1cnn(CC(=O)c2ccc(Cl)cc2)c1 [VI-8]
–,2.13,COC(=O)c1cnn(C2CNN=C2c2ccc(Cl)cc2)c1 (stereo not shown) [II-5]
–,2.33,N#Cc1cnn(C2CNN=C2c2ccc(I)cc2)c1 (stereo not shown) [II-3]
–,1.38,CNC(=O)c1cnn(C2CNN=C2c2ccc(Cl)cc2)c1 (stereo not shown) [II-7]
–,1.44,CNC(=O)c1cnn(CC(=O)c2ccc(Cl)cc2)c1 [VI-7]
–,1.28,NC(=O)c1cnn(C2CNN=C2c2ccc(Cl)cc2)c1 (stereo not shown) [II-8]
–,2.47,N#Cc1cnn(CC(=O)c2ccc(I)cc2)c1 [VI-4]
–,2.20,COC(=O)c1cnn(CC(=O)c2ccc(Cl)cc2)c1 [VI-6]
–,2.36,N#CCNc1ccc(C(F)(F)F)cc1 [XII-3]
–,2.31,N#Cc1cnn(CC(=O)c2ccc(Br)cc2)c1 [VI-3]
–,2.82,N#CCNc1ccc(SC(F)(F)F)cc1 [XII-2]
–,1.54,CN(C)C(=O)c1cnn(C2CNN=C2c2ccc(Cl)cc2)c1 (stereo not shown) [II-6]
–,2.20,N#Cc1cnn(C2CNN=C2c2ccc(Br)cc2)c1 (stereo not shown) [II-2]

# Same assay, conditions: reversed-phase C18 HPLC column; values in the text of the Preparation Examples; HPLC, acidic range pH 2.3, 43° C.; read-out: logP (pH 2)
row,Structure (SMILES),chromatographic logP
1,O=C(O)c1cnn(CC(=O)c2ccc(Cl)cc2)c1 [1-(4-chlorophenacyl)-pyrazole-4-carboxylic acid],1.67
2,"N#Cc1cnn(C2CN(C(=O)Nc3ccc(Cl)cc3)N=C2c2ccc(Cl)cc2)c1 (stereo not shown) [Example 1, 4′-chloro-3-(4-chlorophenyl)-4-(4-cyanopyrazol-1-yl)-4,5-dihydro-1-pyrazolecarboxanilide]",3.64
3,"N#CCN(C(=O)N1CC(n2cc(C#N)cn2)C(c2ccc(Cl)cc2)=N1)c1ccc(OC(F)(F)F)cc1 (stereo not shown) [Example 2, 3-(4-chlorophenyl)-4-(4-cyanopyrazol-1-yl)-4,5-dihydro-1-pyrazole-(N-cyanomethyl)-4′-trifluoromethoxycarboxanilide]",3.68

# Continued, values first:
row,chromatographic logP,Structure (SMILES)
1,1.62,"CN(C)C(=O)c1cnn(CC(=O)c2ccc(Cl)cc2)c1 [VI-2, N,N-dimethyl-1-(4-chlorophenacyl)-pyrazole-4-carboxamide]"
2,2.49,"N#CCNc1ccc(OC(F)(F)F)cc1 [XII-1, N-cyanomethyl-4-trifluoromethoxyaniline]"

# Tested on: Lucilia cuprina larvae
# Test: Blowfly larvae test/development-inhibitory action
# Type: in vivo
# Details: 20 ppm; after 48 h
# Description: 20 mg of active compound are dissolved in 1 ml of dimethyl sulphoxide. More dilute concentrations are prepared by dilution with distilled water.
# About 20 Lucilia cuprina larvae are introduced into a test tube which contains about 1 cm^3 of horsemeat and 0.5 ml of the preparation of active compound to be tested. The activity of the preparation of active compound is determined after 24 and 48 hours. The test tubes are transferred into a beaker whose bottom is covered with sand. After a further 2 days, the test tubes are removed and the pupae are counted.
# The activity of the preparation of active compound is assessed using the number of flies that have hatched after 1.5 times the development period of an untreated control. 100% means that none of the flies have hatched; 0% means that all of the flies have hatched normally.
row,Structure (SMILES),activity/kill rate in % after 48 h
1,COC(=O)N(C(=O)N1CC(n2cc(C#N)cn2)C(c2ccc(Cl)cc2)=N1)c1ccc(OC(F)(F)F)cc1 (stereo not shown) [drawing 79],100/100%
2,N#Cc1cnn(C2CN(C(=O)Nc3ccc(OC(F)(F)F)cc3)N=C2c2ccc(Br)cc2)c1 (stereo not shown) [drawing 81],100/100%
3,N#Cc1cnn(C2CN(C(=O)Nc3ccc(S(=O)(=O)C(F)(F)F)cc3)N=C2c2ccc(Br)cc2)c1 (stereo not shown) [drawing 82],100/100%
4,N#Cc1cnn(C2CN(C(=O)Nc3ccc(S(=O)(=O)C(F)(F)F)cc3)N=C2c2ccc(Cl)cc2)c1 (stereo not shown) [drawing 84],100/100%
5,N#Cc1cnn(C2CN(C(=O)Nc3ccc(OC(F)(F)F)cc3)N=C2c2ccc(Cl)cc2)c1 (stereo not shown) [drawing 78],100/100%

# Same assay, conditions: 20 ppm; after 14 d
row,Structure (SMILES),activity/kill rate in % after 14 d
1,N#Cc1cnn(C2CN(C(=O)Nc3ccc(C(F)(F)F)cc3)N=C2c2ccc(Cl)cc2)c1 (stereo not shown) [drawing 86],100/100%
2,CCOC(=O)N(C(=O)N1CC(n2cc(C#N)cn2)C(c2ccc(Cl)cc2)=N1)c1ccc(OC(F)(F)F)cc1 (stereo not shown) [drawing 89],100%
3,N#Cc1cnn(C2CN(C(=O)Nc3ccc(Cl)cc3)N=C2c2ccc(Cl)cc2)c1 (stereo not shown) [drawing 87],100/100%

# Same assay, conditions: 100 ppm; after 48 h
row,Structure (SMILES),activity/kill rate in % after 48 h
1,COC(=O)N(C(=O)N1CC(n2cc(C#N)cn2)C(c2ccc(Cl)cc2)=N1)c1ccc(OC(F)(F)F)cc1 (stereo not shown) [drawing 79],100/100%
2,N#Cc1cnn(C2CN(C(=O)Nc3ccc(OC(F)(F)F)cc3)N=C2c2ccc(Br)cc2)c1 (stereo not shown) [drawing 81],100/100%
3,N#Cc1cnn(C2CN(C(=O)Nc3ccc(S(=O)(=O)C(F)(F)F)cc3)N=C2c2ccc(Br)cc2)c1 (stereo not shown) [drawing 82],100/100%
4,N#Cc1cnn(C2CN(C(=O)Nc3ccc(S(=O)(=O)C(F)(F)F)cc3)N=C2c2ccc(Cl)cc2)c1 (stereo not shown) [drawing 84],100/100%
5,N#Cc1cnn(C2CN(C(=O)Nc3ccc(OC(F)(F)F)cc3)N=C2c2ccc(Cl)cc2)c1 (stereo not shown) [drawing 78],100/100%

# Same assay, conditions: 100 ppm; after 14 d
row,Structure (SMILES),activity/kill rate in % after 14 d
1,N#Cc1cnn(C2CN(C(=O)Nc3ccc(C(F)(F)F)cc3)N=C2c2ccc(Cl)cc2)c1 (stereo not shown) [drawing 86],100/100%
2,N#Cc1cnn(C2CN(C(=O)Nc3ccc(Cl)cc3)N=C2c2ccc(Cl)cc2)c1 (stereo not shown) [drawing 87],100/100%

# Same assay, conditions: Lucilia cuprina, 48 h, read-out: activity/kill rate in % after 48 h
row,Structure (SMILES),pest or weed control at 100 ppm [%]
1,CCOC(=O)N(C(=O)N1CC(n2cc(C#N)cn2)C(c2ccc(Cl)cc2)=N1)c1ccc(OC(F)(F)F)cc1 (stereo not shown) [drawing 80],100
